Measured values reported in ChEMBL document CHEMBL1629525, “Synthesis and characterization of 1,3-dihydro-benzo[b][1,4]diazepin-2-one derivatives: Part 4. In vivo active potent and selective non-competitive metabotropic glutamate receptor 2/3 antagonists” (Bioorg Med Chem Lett, 2010).
≈ marks a conversion by molar mass, not a printed value. Calls of active or inactive are those of the source. The rule behind the calls is not given here.

Legend:
[1] = target: Metabotropic glutamate receptor 3 (Rattus norvegicus, UniProt P31422); test: Antagonist activity at rat mGluR3 receptor expressed in CHO cells assessed as inhibition of GIRK current; type: functional, cell-based
[2] = Oral bioavailability in rat at 10 mg/kg, po; type: ADME, organism-based; conditions: in vivo
Rattus norvegicus [3] = test: Neurotoxicity in rat assessed as antidepressant-like activity at 1 mg/kg after 35 to 180 mins, po; type: toxicity, organism-based; set-up: dose 1 mg/kg, route oral; conditions: in vivo
[4] = target: T1, Metabotropic glutamate receptor 2 (Rattus norvegicus, UniProt P31421); test: Partial displacement of [3H]LY354740 from recombinant rat mGluR2
Rattus norvegicus [5] = organism: Rattus norvegicus; test: Antiamnesic activity in rat assessed as inhibition of LY354740-induced impairment of working memory by DMTP test; type: functional, organism-based
Rattus norvegicus [6] = test: Antagonist activity at rat mGluR3 assessed as inhibition of LY354740-induced hypoactivity at 10 mg/kg, po; type: functional, organism-based; set-up: dose 10 mg/kg
Rattus norvegicus [7] = test: Antiamnesic activity in rat assessed as partial inhibition of LY354740-induced impairment of working memory at 10 mg/kg, po by DMTP test; type: functional, organism-based; set-up: dose 10 mg/kg
Rhesus monkey = test: Induction of working memory impairment in Rhesus monkey by DMTP test; type: functional, organism-based; conditions: Macaca mulatta
Rattus norvegicus [8] = test: Neurotoxicity in rat assessed as locomotor activity upto 30 mg/kg, po by rotarod test; type: toxicity, organism-based; set-up: dose 30 mg/kg, route oral; conditions: in vivo
Liver microsomes = test: Clearance in rat liver microsomes; type: ADME, Microsome
Rattus norvegicus [9] = test: Antiamnesic activity in rat assessed as partial inhibition of LY354740-induced impairment of working memory at 3 mg/kg, po by DMTP test; type: functional, organism-based; set-up: dose 3 mg/kg
[10] = target: Metabotropic glutamate receptor 2 (Homo sapiens, UniProt Q14416); test: Antagonist activity at human mGluR2 receptor expressed in CHO cells assessed as inhibition of GIRK current; type: functional, cell-based
[11] = Ratio of drug level in brain to plasma in rat; type: ADME; conditions: brain and plasma
Rattus norvegicus [12] = organism: Rattus norvegicus; test: Amnesic activity in rat assessed as missed trials by DMTP test; type: functional, organism-based
[13] = Thermodynamic solubility of the compound at pH 3; type: physicochemical; conditions: buffer
[14] = Clearance in rat at 2.5 mg/kg, iv; type: ADME, organism-based; set-up: dose 2.5 mg/kg, route intravenous; conditions: in vivo
[15] = target: T1, Metabotropic glutamate receptor 2; test: Antagonist activity at recombinant rat mGluR2 expressed in forskolin-stimulated CHO cells assessed as inhibition of (1S,3R)-ACPD induced cAMP production; type: functional, cell-based
Rattus norvegicus [16] = test: Agonist activity at rat mGluR3 assessed as decrease in spontaneous locomotor activity at 10 mg/kg, sc after 30 mins; type: functional, organism-based; set-up: dose 10 mg/kg
Homo sapiens = organism: Homo sapiens; test: Induction of cognitive impairment in human; type: functional, organism-based
[17] = target: T1, Metabotropic glutamate receptor 2; test: Antagonist activity at rat mGluR2 receptor expressed in CHO cells assessed as inhibition of GIRK current; type: functional, cell-based
Rattus norvegicus [18] = test: Neurotoxicity in rat assessed as effect on spontaneous locomotor activity upto 30 mg/kg, po; type: toxicity, organism-based; set-up: dose 30 mg/kg, route oral; conditions: in vivo
Rattus norvegicus [19] = test: Antagonist activity at rat mGluR2 assessed as inhibition of LY354740-induced hypoactivity at 10 mg/kg, po; type: functional, organism-based; set-up: dose 10 mg/kg
Cytochrome P450 3A4 = Cytochrome P450 3A4 (Homo sapiens, UniProt P08684); test: Inhibition of CYP3A4; type: ADME
Rattus norvegicus [20] = test: Agonist activity at rat mGluR2 assessed as decrease in spontaneous locomotor activity at 10 mg/kg, sc after 30 mins; type: functional, organism-based; set-up: dose 10 mg/kg
Rattus norvegicus [21] = test: Antiamnesic activity in rat assessed as partial reversal of scopolamine-induced impairment of working memory at 3 mg/kg, po by DMTP test; type: functional, organism-based; set-up: dose 3 mg/kg
Rattus norvegicus [22] = test: Neurotoxicity in rat assessed as effect on grip strength upto 30 mg/kg, po; type: toxicity, organism-based; set-up: dose 30 mg/kg, route oral; conditions: in vivo
Rattus norvegicus [23] = organism: Rattus norvegicus; test: Induction of working memory impairment in rat by DMTP test; type: functional, organism-based
[24] = Volume of dustribution at steady state in rat at 2.5 mg/kg, iv; type: ADME, organism-based; set-up: dose 2.5 mg/kg, route intravenous; conditions: in vivo, read-out: Vdss
Rattus norvegicus [25] = organism: Rattus norvegicus; test: Amnesic activity in rat assessed as latency to response by DMTP test; type: functional, organism-based
Rattus norvegicus [26] = test: Antiamnesic activity in rat assessed as partial reversal of scopolamine-induced impairment of working memory at 0.06 mg/kg, sc by DMTP test; type: functional, organism-based; set-up: dose 0.06 mg/kg
[27] = Half life in rat at 2.5 mg/kg, iv; type: ADME, organism-based; set-up: dose 2.5 mg/kg, route intravenous; conditions: in vivo

T1 sequence (P31421 whole entry): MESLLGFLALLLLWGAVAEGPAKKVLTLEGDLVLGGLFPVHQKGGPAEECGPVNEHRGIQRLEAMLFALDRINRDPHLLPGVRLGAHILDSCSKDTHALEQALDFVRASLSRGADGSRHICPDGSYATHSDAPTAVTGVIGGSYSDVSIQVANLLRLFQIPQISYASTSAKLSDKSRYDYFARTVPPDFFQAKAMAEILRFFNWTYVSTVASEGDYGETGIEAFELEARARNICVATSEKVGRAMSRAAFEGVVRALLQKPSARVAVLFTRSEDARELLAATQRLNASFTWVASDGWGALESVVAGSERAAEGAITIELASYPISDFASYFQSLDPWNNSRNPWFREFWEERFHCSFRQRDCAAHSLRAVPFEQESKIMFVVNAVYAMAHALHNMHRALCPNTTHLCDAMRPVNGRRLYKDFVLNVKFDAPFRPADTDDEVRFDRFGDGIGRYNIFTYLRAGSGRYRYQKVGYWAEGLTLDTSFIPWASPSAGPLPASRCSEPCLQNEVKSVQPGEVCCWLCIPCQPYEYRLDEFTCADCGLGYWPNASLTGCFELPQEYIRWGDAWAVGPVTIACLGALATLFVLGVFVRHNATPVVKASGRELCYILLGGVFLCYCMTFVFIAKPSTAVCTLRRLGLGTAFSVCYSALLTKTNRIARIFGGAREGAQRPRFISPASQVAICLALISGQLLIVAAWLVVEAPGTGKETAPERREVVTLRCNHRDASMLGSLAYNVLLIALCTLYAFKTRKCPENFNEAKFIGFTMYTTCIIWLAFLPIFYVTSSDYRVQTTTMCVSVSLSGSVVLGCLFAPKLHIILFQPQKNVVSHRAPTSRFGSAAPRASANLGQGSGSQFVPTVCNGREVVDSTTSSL
Chain of Cytochrome P450 3A4 (P08684 whole entry): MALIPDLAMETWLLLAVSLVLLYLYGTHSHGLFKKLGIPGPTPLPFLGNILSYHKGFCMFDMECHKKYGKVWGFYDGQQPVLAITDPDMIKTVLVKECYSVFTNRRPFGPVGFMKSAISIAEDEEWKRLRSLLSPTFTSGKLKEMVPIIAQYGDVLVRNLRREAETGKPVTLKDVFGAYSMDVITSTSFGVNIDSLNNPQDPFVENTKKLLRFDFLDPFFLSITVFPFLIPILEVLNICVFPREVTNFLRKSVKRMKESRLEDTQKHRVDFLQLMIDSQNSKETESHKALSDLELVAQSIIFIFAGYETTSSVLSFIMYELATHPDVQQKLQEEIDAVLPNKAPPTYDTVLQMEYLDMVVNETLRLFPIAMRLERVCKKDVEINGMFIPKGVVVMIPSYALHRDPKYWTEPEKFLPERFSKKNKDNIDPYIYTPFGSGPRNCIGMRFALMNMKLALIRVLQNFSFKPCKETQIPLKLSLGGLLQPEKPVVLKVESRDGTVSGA
Chain of Metabotropic glutamate receptor 2 (Homo sapiens, UniProt Q14416) (Q14416 whole entry): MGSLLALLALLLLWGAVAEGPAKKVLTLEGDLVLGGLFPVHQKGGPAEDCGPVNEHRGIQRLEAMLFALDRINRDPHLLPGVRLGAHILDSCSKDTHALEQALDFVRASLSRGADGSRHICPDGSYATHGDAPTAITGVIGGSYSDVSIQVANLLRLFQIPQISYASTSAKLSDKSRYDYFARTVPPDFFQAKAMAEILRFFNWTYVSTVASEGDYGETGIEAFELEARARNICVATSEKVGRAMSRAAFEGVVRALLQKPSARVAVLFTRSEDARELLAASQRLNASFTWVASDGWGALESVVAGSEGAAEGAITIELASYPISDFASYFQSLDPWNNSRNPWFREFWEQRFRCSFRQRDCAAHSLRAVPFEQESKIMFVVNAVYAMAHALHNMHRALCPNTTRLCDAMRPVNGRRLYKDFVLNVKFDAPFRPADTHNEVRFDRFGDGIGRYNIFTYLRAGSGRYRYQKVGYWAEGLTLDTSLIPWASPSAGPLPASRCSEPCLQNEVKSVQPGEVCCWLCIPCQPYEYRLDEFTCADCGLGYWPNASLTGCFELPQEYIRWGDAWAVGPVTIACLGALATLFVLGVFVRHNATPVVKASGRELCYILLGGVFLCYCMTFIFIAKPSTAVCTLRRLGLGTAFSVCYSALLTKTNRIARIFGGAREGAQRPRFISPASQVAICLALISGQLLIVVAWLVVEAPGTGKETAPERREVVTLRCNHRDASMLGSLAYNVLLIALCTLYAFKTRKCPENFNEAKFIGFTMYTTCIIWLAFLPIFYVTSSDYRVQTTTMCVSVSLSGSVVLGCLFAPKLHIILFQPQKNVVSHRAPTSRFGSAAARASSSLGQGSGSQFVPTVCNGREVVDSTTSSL
Chain of Metabotropic glutamate receptor 3 (P31422 whole entry): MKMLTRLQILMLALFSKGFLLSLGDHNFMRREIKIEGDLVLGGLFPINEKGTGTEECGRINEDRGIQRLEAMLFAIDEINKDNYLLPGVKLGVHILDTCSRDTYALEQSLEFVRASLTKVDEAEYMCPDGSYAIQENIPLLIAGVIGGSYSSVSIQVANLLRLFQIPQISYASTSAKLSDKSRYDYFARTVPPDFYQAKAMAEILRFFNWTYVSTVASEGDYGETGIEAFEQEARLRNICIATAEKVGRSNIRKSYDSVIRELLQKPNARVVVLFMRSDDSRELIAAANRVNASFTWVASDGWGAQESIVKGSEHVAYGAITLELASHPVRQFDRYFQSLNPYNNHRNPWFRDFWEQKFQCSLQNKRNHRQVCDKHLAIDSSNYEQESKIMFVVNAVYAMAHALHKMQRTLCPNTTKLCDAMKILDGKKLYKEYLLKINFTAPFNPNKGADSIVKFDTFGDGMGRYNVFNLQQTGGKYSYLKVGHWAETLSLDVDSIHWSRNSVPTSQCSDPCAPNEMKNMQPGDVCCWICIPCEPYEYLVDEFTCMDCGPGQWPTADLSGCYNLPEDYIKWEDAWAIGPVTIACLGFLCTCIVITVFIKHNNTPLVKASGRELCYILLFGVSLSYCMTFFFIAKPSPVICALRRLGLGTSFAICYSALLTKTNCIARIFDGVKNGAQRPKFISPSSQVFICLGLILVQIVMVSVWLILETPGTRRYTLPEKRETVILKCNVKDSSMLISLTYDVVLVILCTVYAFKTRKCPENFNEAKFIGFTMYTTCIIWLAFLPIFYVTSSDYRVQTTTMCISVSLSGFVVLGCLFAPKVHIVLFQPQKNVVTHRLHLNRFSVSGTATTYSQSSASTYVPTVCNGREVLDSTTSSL

Compound: Cc1cc(-c2cccc(C3=Nc4cc(C)c(C(F)(F)F)cc4NC(=O)C3)c2)cc(C)n1
- IC50 [1]: < 10 nM
- bioavailability [2]: 52%
- Activity (Rattus norvegicus [3]): Toxic
- IC50 [4]: 2 nM
- Activity (Rattus norvegicus [5]): Active
- Activity (Rattus norvegicus [6]): Active
- Activity (Rattus norvegicus [7]): Active
- Activity (Rhesus monkey): Active
- Activity (Rattus norvegicus [8]): Non-toxic
- CL (Liver microsomes): 4.7 mL/min/kg
- Activity (Rattus norvegicus [9]): Dose-dependent effect
- IC50 [10]: 14 nM
- Kp [11]: 1.4
- Activity (Rattus norvegicus [12]): Dose-dependent effect
- solubility thermodynamic [13]: 64 µg/mL (≈ 151 µM)
- clearance [14]: 5.7 mL/min/kg
- IC50 [15]: 3 nM
- Activity (Rattus norvegicus [16]): Dose-dependent effect
- Activity (Homo sapiens): Active
- IC50 [17]: < 10 nM
- Activity (Rattus norvegicus [18]): Non-toxic
- Activity (Rattus norvegicus [19]): Active
- IC50 (Cytochrome P450 3A4): 4800 nM
- Activity (Rattus norvegicus [20]): Dose-dependent effect
- Activity (Rattus norvegicus [21]): Active
- Activity (Rattus norvegicus [22]): Non-toxic
- Activity (Rattus norvegicus [23]): Dose-dependent effect
- Vd [24]: 5.8 L/kg
- Activity (Rattus norvegicus [25]): Dose-dependent effect
- Activity (Rattus norvegicus [26]): Active
- half-life [27]: 12.8 h
